Source: US20070249709A1, “Crystal forms of (S)-(8(2,6-dichlorophenyl)-6-fluoro-2,3-dihydro benzo[b][1,4]dioxin-2-yl)methanamine hydrochloride salt” (Wyeth, priority 2006, published 2007)
Entries after “also recorded” stand apart in the source; their conditions may differ. Counter-ions that a name gives are not always drawn. Each block holds one compound with its values, some of them ahead of it.

Tests used:
Format in all cases: physicochemical
Grinding test = conditions: manually ground, ambient conditions; hydrochloride
Description: Samples of Form I and Form II were manually ground and the resulting powders were characterized by one or more methods of XRPD, DSC and TGA.

[1] = Thermal stability of crystal forms under vacuum and 50° C.; conditions: vacuum
Procedure: Forms I, II and III were placed in oven at 50° C. and under vacuum to assess their thermal stability.

[2] = Hygroscopicity by dynamic vapor sorption (DVS); conditions: for Reversibility of DVS mass change / Crystal form stability at high humidity (DVS): hydrochloride; for Crystal form stability at high humidity (DVS): high RH
Description: The hygroscopicity (the ability to absorb water vapor from the surrounding atmosphere) of Forms I and II was explored by dynamic vapor sorption (DVS) experiments. […] When RH was scanned from 70% to 100%, significant mass change was observed (up to about 4.5%). […] When RH continued to be scanned from 50% to 0%, the sample lost water (weight). […] A second cycle of scanning indicated a new absorption behavior when RH was raised from 50% to 100%.
The starting RH was about 50%, and only about 1% of mass change was observed when RH was scanned to 100% RH. When RH was scanned back to 50%, the mass change appeared reversible. The mass change was very slow when RH continued to be scanned from 50% to 10%. When RH was scanned from 10% to 0%, the sample lost about 2.7% of mass (water).

[3] = Solution mediated transformation (reslurry stability experiments at 25° C.); conditions: for Stability on slurrying (summary of Table 6): water or organic solvent, hydrochloride
Description: The mixtures were then filtered and the solids obtained were characterized by one or more methods of XRPD, DSC and TGA.

[4] = Heating of a mixture of Form I and Form III
Procedure: A mixture of Form I and Form III (2θ-50 wt % of Form III) was heated to 110° C. at ambient pressure and kept at this temperature and pressure for 4 hours.
A mixture of Form I and Form III (2θ-50 wt % of Form III) was placed in an oven at 50° C. and under vacuum for 72 hours.

[5] = Slurry of a mixture of Form I and Form III in a solvent, crystal form by XRPD/DSC; conditions: for Final Form, Slurry @ RT: about 2 days
Procedure: A mixture of Form I and Form III (2θ-50 wt % of Form III) was slurried in a solvent (see Table 5) with stirring at room temperature for about 2 days. The slurry was then filtered at room temperature. The solid was dried at 50° C. under vacuum for overnight. The solid obtained by the filtration was characterized by XRPD both before and after the drying at 50° C.

[6] = RH scanned from 100% back to 50%, room temperature

- Solid form After grinding (Grinding test): some of Form I is changed into Form III
- Relative thermal stability (retention of crystal lattice integrity) [1]: more stable than Form III
- Final Form ([1]; 48 hr): Form I
- DVS mass change ([2]; RH from about 50% to 70%, room temperature (FIG. 3)): little mass change
- Water absorption (DVS) ([2]; RH raised from 0% only to about 70% (FIG. 4)): absorbed very little water
- DVS mass change ([2]; RH scanned from 70% to 100%, room temperature): up to 4.5%
- DVS mass change remaining [2, 6]: about 2.7%
- Reversibility of DVS mass change [2, 6]: substantially irreversible
- Stability on slurrying (summary of Table 6) [3]: stable in organic solvents
SMILES: NC[C@H]1COc2cc(F)cc(-c3c(Cl)cccc3Cl)c2O1 [Form I, (S)-(8-(2,6-dichlorophenyl)-6-fluoro-2,3-dihydrobenzo[b][1,4]dioxin-2-yl)methanamine hydrochloride]
- Crystal form stability at high humidity (DVS) ([2]; room temperature): may be converted into another form at high RH

- Relative thermal stability (retention of crystal lattice integrity) [1]: more stable than Form III
- Final Form ([1]; 72 hr): Form II
- DVS mass (water) loss ([2]; RH scanned from 10% to 0%, room temperature): about 2.7%
- Reversibility of DVS mass change [2, 6]: reversible
- DVS mass change ([2]; RH scanned from about 50% to 100%, room temperature (FIG. 8)): about 1%
- Final form, Sample from wet filter cake ([3]; reslurry in tBME, 30 mins): I + II
- Stability on slurrying (summary of Table 6) [3]: stable in water
SMILES: NC[C@H]1COc2cc(F)cc(-c3c(Cl)cccc3Cl)c2O1 [Form II, (S)-(8-(2,6-dichlorophenyl)-6-fluoro-2,3-dihydrobenzo[b][1,4]dioxin-2-yl)methanamine hydrochloride]
- Solid form After grinding (Grinding test): did not lose its crystal structure; also recorded: Form II
- Crystal form stability at high humidity (DVS) ([2]; room temperature): substantially stable even under high humidity

- Final Form ([1]; 20 hr): Form I + Form III
- Stability on slurrying (summary of Table 6) [3]: less stable under some conditions
SMILES: NC[C@H]1COc2cc(F)cc(-c3c(Cl)cccc3Cl)c2O1 [Form III, (S)-(8-(2,6-dichlorophenyl)-6-fluoro-2,3-dihydrobenzo[b][1,4]dioxin-2-yl)methanamine hydrochloride]

- Resulting solid form (XRPD) ([4]; 110° C., ambient pressure, 4 hours): anhydrous Form I
- Resulting solid form (XRPD) ([4]; oven at 50° C., under vacuum, 72 hours): anhydrous Form I
- Final Form, Slurry @ 50° C. ([5]; Isopropyl acetate): by DSC (I and minor III)
- Final Form, Slurry @ RT ([5]; Isopropyl acetate): DSC (I and minor III)
- Final Form, Slurry @ RT ([5]; Toluene): DSC (I and minor III)
SMILES: NC[C@H]1COc2cc(F)cc(-c3c(Cl)cccc3Cl)c2O1 [I & III, (S)-(8-(2,6-dichlorophenyl)-6-fluoro-2,3-dihydrobenzo[b][1,4]dioxin-2-yl)methanamine hydrochloride]
